# In patent publication US20060223135A1, “High throughput reactive oxygen species-based cytochrome P450 inhibition assay” (The University of North Carolina at Chapel Hill, priority 2005, published 2006):
# What was measured:
# [1] = biological target: T1, CYP3A4 (Homo sapiens, UniProt P08684); assay: Conventional LC-UV assay quantifying 6β-hydroxytestosterone formation by CYP3A4; conditions: LC-based IC50, recombinant CYP3A4 microsomes, testosterone substrate, LC-UV quantification of 6β-hydroxytestosterone
# Protocol: (§1) 1′-hydroxymidazolam and microsomes (SUPERSOMES™) prepared from baculovirus-infected insect cells containing recombinant heterologously expressed human CYP plus NADPH CYP reductase were purchased from GenTest Corp. (Woburn, Mass., United States of America). 6β-hydroxytestosterone and 11α-hydroxyprogesterone were obtained from Steraloids Inc. (Wilton, N.H., United States of America).
# Inhibition of CYP3A4-mediated oxidation of testosterone was measured by 6β-hydroxytestosterone formation. The kinetics of 6β-hydroxytestosterone formation by CYP3A4 was determined and compared to rate of fluorescence production. Reactions consisted of varying concentrations of testosterone, 50 pmol CYP3A4 per ml, and buffer to a final volume of one milliliter. Reactions were performed at 37° C. and were started upon addition of 1 mM NADPH. […] Samples were placed immediately on ice and the precipitated protein was removed by centrifugation for four minutes at 13,000 rpm. The supernatant was transferred to HPLC vials for analysis.
# HPLC analysis was performed using an Agilent 1100 Series HPLC system (Agilent Technologies, Palo Alto, Calif., United States of America) equipped with an online UV-detector. […]
# [2] = biological target: T1, CYP3A4; assay: ROS-based fluorescence assay (DCFH-DA oxidation) of inhibition of CYP3A4-mediated testosterone oxidation; conditions: ROS-based IC50, recombinant CYP3A4 microsomes, testosterone substrate 40 μM
# Protocol: as §1
# Stock solutions of DCFH-DA (2.5 mM) and NADPH (20 mM) were prepared prior to each experiment in methanol and buffer, respectively. Substrates and inhibitors were prepared in 100% methanol and stored at −20° C. […] Unless otherwise indicated, testosterone were added to the reactions at a final concentration of 40 μM. An equal volume of methanol was added to samples containing no substrate and served as controls. Reactions were performed at 37° C. in 96-well black bottom plates. Inhibitors were added at varying concentrations from stock solutions prepared in either water or methanol. Final methanol concentrations were kept constant among samples (1%, v/v) to eliminate variability in the rate of fluorescence production due to the effect of methanol on CYP activity. […] The concentration of DCF in the reactions was determined using a standard curve constructed with authentic DCF. […]
# T1 sequence (P08684 2-503 limits assumed): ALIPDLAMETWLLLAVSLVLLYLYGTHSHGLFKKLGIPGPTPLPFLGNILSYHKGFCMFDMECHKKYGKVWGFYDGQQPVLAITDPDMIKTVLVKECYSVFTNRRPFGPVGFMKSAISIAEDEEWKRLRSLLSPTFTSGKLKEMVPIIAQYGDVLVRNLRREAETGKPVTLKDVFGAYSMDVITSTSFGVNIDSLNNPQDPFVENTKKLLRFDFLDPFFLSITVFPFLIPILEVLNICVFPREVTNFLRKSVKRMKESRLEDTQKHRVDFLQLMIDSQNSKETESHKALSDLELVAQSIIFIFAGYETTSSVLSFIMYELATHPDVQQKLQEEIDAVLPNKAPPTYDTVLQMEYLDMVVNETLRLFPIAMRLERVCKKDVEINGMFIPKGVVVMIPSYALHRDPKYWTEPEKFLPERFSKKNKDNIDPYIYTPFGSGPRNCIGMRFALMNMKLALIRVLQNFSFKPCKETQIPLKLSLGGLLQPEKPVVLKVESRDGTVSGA
Compound,IC50 [1],IC50 [2]
CC[C@H]1OC(=O)[C@H](C)[C@@H](O[C@H]2C[C@@](C)(OC)[C@@H](O)[C@H](C)O2)[C@H](C)[C@@H](O[C@@H]2O[C@H](C)C[C@H](N(C)C)[C@H]2O)[C@](C)(O)C[C@@H](C)C(=O)[C@H](C)[C@@H](O)[C@]1(C)O [Erythromycin],1.7 µM,27.6 µM
CC(=O)[C@H]1CC[C@H]2[C@@H]3CCC4=CC(=O)CC[C@]4(C)[C@H]3CC[C@]12C [Progesterone],22.6 µM,27.6 µM
